Results from patent US5936065A, “CS-1 peptidomimetics, compositions and methods of using the same” (Cytel Corporation, priority 1995, dated 1999).
Square brackets hold non-standard residues; d marks the D form. Peptide text beside a SMILES is read from it. * marks the point of attachment. PhAc = O=C(Cc1ccccc1)*

Experiments:
BALB/c mice = experiment: Adoptive transfer delayed type hypersensitivity (oxazolone) in mice; assay type: in vivo, mouse; conditions: for reduction of inflammation (swelling diameter at challenge site), initial study: 6 mg/kg/day subcutaneously by implanted pump for 24 hours, ear swelling 24 hours after challenge, FIG. 5
Experimental: An adoptive transfer delayed-type hypersensitivity murine model has been developed using splenic T cells primed to oxazolone. This model is described in Elices et al., Clin. Exp. Rheum., 11(Suppl. 8):577-580 (1993), whose procedures were followed here.
Thus, BALB/c mice were shaved on the belly and painted (50 μl on the belly and 5 μl on each paw) with three percent oxazolone in acetone/olive oil (4:1) at days zero and 1. At day 5, the mice were sacrificed, their spleens removed, and splenic T cells were obtained via nylon wool columns.
Normal saline or saline containing 25×10^6 /animal of the oxazolone-immune T cells were separately injected into naive mice. The mice were then challenged by painting 10 μl of 2 percent oxazolone onto one ear each. All procedures were carried out under sterile conditions and in endotoxin-free buffers.
Prior to challenge or saline injection, the mice were implanted with pumps that subcutaneously administered normal saline, normal saline containing the compound, Compound ID No. 896.52, N-phenylacetyl-Leu-Asp-Phe-D-Pro-NH2, or normal saline containing a compound with a scrambled sequence continually at 6 mg/kg/day for a 24-hour time period. The swelling diameter at the site of challenge or saline injection was measured with a microcaliper 24 hours thereafter.
An expanded study was carried out as described above except that a scrambled compound control was not used as a control for further inhibitor compounds of Table 1 with larger groups of mice. Statistical analyses were carried out versus injection of vehicle alone.

asthmatic sheep = experiment: Treatment of asthmatic sheep (Ascaris suum antigen, double blind cross-over); assay type: in vivo; conditions: for PC400, carbachol dosage required to increase SRL 4-fold: 24 hours after challenge, pre-challenge values about 20-23 BU; for specific lung resistance (SRL) after challenge: nebulized 1 mg/kg twice a day for three days, 0.5 hours prior to and four hours post challenge on day 4, FIG. 7
Experimental: Six asthmatic sheep were treated in a double blind cross-over study. […] This study was carried out generally as described in Abraham et al., J. Clin. Invest., 93:776-787 (1994).
The inhibitor compound used here was Compound ID No. 896.52, N-phenylacetyl-Leu-Asp-Phe-D-Pro-NH2, with a control compound that comprised the previously described compound having the same residues in a scrambled sequence. The vehicle for the nebulized compounds was phosphate-buffered saline. The compounds were administered at a dose of 1 mg/kg each, twice a day for three days prior to challenge, as well as 0.5 hours prior to and four hours post challenge on day 4. Because this was a crossover study, each animal received one or the other treatment, followed by a rest and then the other treatment. Each animal therefore served as its own control.
Post challenge airway responsiveness was also assayed. Here, specific lung resistance, SRL, returned to baseline values 24 hours after challenge, however, the sheep were hyperresponsive to inhaled carbachol at that time.

VLA-4 receptor = target: T1, VLA-4 receptor (Homo sapiens, UniProt P05556+P13612); experiment: In vitro binding assay: inhibition of binding of 51Cr-labeled Jurkat cells to solid phase-bound CS-1 compound (SEQ ID NO:1); assay type: cell-based; conditions: for Relative Potency: binding inhibition potency (IC50) normalized to standard compound of SEQ ID NO:3 = 1, multiple assays averaged, about one-tenth or less assigned zero
T1 construct: inflammatory cells that contain the VLA-4 receptor [Jurkat cells; host or cells: Jurkat cells (human T lymphoblastic line)
T1 sequence (P13612 34-1032): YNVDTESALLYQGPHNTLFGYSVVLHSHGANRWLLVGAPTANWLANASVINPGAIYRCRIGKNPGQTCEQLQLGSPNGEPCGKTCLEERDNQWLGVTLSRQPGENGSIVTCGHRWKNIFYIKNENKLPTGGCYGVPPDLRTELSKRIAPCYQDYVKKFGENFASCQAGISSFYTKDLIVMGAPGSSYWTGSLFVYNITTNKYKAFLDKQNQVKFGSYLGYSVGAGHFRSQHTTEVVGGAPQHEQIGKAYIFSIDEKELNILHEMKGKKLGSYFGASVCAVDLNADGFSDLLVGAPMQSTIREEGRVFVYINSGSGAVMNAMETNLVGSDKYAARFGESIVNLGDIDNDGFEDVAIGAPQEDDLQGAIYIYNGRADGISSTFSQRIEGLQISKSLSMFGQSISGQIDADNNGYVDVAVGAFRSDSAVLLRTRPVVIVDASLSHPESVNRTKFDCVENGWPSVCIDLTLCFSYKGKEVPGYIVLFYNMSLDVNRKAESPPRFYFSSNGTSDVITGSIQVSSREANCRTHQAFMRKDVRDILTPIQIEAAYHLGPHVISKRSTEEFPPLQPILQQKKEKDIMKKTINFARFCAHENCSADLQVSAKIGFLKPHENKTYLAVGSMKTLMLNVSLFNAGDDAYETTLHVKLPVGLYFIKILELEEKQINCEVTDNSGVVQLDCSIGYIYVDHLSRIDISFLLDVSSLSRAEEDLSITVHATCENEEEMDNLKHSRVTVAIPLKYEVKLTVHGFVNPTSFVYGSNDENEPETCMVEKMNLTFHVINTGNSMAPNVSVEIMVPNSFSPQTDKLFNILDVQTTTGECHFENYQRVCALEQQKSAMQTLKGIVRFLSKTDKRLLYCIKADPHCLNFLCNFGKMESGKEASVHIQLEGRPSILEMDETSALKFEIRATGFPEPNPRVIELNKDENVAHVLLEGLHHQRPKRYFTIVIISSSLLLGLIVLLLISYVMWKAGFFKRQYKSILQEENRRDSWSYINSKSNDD
T1 sequence (P05556 21-798): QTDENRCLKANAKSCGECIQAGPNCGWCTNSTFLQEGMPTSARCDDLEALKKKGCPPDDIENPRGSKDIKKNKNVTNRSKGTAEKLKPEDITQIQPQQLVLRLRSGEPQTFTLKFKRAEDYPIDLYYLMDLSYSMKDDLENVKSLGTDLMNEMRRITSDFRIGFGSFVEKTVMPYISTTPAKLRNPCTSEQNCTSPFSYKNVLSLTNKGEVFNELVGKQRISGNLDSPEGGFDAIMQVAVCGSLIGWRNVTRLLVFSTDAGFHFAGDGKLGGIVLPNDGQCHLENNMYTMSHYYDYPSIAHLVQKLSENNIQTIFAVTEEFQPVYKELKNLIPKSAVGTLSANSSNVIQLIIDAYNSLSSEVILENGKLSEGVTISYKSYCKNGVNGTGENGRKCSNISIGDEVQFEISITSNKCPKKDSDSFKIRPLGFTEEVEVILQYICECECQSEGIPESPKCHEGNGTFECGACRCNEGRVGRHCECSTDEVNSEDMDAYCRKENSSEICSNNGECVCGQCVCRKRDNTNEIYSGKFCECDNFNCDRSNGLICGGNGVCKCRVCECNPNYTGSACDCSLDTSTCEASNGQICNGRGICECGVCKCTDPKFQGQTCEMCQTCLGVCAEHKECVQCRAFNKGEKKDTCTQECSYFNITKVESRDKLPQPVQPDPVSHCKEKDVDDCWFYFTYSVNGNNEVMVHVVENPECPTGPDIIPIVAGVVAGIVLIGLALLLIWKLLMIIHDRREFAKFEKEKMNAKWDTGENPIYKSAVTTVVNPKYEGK
Experimental: Binding inhibition is measured here as a concentration of compound that inhibits one-half the binding between a standard number of Jurkat cells and a standard amount of CS-1 compound bound to the surface of a microtiter plate well. Those concentrations are conveniently expressed as IC50 values, smaller numbers indicating a lower concentration required to inhibit 50 percent binding and therefore greater potency. Further specifics of this assay are provided hereinafter.
Jurkat cells (ATCC TIB 152), a human T lymphoblastic line, labeled with ^51 chromium were used to assay in vitro binding inhibition provided by various compounds discussed herein.
The plates were prepared as follows: The 25-mer CS-1 compound (SEQ ID NO:1) dissolved at 0.5-1 μg/ml in a buffer of 0.1M NaHCO3 at pH 9.5 that also contained 10 μg/ml of bovine serum albumin (BSA) or a conjugate of the CS-1 compound linked to ovalbumin (CS-1-OVA) dissolved at 1-2.5 μg/ml in the same buffer was used as the substrate. Each well of the microtiter plates was coated with 50 μl of substrate or buffer alone for controls. The wells were permitted to dry out completely and were then rinsed twice with PBS at pH 7.4. Non-specific binding sites of each well were then blocked using 200 μl per well of RPMI/1 percent BSA for two hours at room temperature.
Jurkat cells (3-5×10^6 cells) were placed into a 15 ml Falcon™ round-bottom tube with a cap. The tube was centrifuged, and the extra medium was then removed.
Two hundred microliters of a ^51 Cr labeling solution were added to the centrifuged cells and maintained in contact with the cells for 90-120 minutes in a warm room. […] Longer contact times provide a greater amount of labeling but lower cell viability.
The labeled cells are washed with (i) complete medium, (ii) 1 mM EDTA/PBS and then (iii) RPM1/1 percent BSA free of serum components. The cells are centrifuged after each washing. The cells are finally resuspended in serum-free RPMI/1 percent BSA at a concentration of 1×10^6 viable cells/ml, which provides a concentration that is diluted by one-half in the assay.
Inhibitor compounds are prepared as stock solutions at 20 mg/ml in DMSO in 1.5 ml cryogenic screwcap vials, and were stored at -70° C. Using Flow™ round-bottom or V-bottom microtiter plates, the inhibitor compounds were prepared at twice the assay concentration in RPMI/1 percent BSA at 60 μl/well.
Four initial dilutions were typically used.
The ^51 Cr-labeled cells ([…] at 60 μl/well) were then admixed with the diluted compound solutions. The admixtures were maintained at room temperature (about 22° C.) for 30 minutes.
One hundred microliters of each inhibitor compound/cell admixture were transferred to the substrate-coated wells. This was done in triplicate for each dilution. The resulting plates were incubated for 30 minutes at 37° C. and then washed gently three times with RPMI/1 percent BSA at 200 μl/well. Binding was observed microscopically, particularly after the second wash.
The bound cells were then lysed by the addition of a 0.5 percent solution of sodium dodecylsulfate in water at 100 μl/well. The resulting solutions were then processed for counting and calculation of IC50 values following usual procedures.
The data of Table 1 are normalized to the binding of SEQ ID NO:3. […] Multiple assays for the same compound were averaged.

Q: With `CC(C)C[C@H](NC(=O)Cc1ccccc1)C(=O)N[C@@H](CC(=O)O)C(=O)N[C@@H](Cc1ccccc1)C(=O)N1CCC[C@@H]1C(N)=O` [896.52, N-phenylacetyl-Leu-Asp-Phe-D-Pro-NH2] (PhAc-LDF[dP]-NH2) as the molecule, how does the “reduction of inflammation (swelling diameter at challenge site), initial study” value (BALB/c mice) read?
A: reduced this type of CS-1/VLA-4-mediated immunoinflammation

Q: What about the “Percent Inhibition of post-challenge swelling, expanded study” value (BALB/c mice; versus vehicle alone, implanted pump, 24 hours) of the same molecule?
A: 36%

Q: And the “PC400, carbachol dosage required to increase SRL 4-fold” value (asthmatic sheep)?
A: about 27 BU

Q: And the “specific lung resistance (SRL) after challenge” value (asthmatic sheep)?
A: less of a change from baseline specific lung resistance

Q: And the “IC50 value, times less than the IC50 value for the standard 10-mer” value (VLA-4 receptor; as shown in Table 1)?
A: about 312 times

Q: And the “Relative Potency” value (VLA-4 receptor)?
A: 313

Q: What does the source list for `CC(C)C[C@H](NC(=O)[C@H](CC(=O)O)NC(=O)Cc1ccccc1)C(=O)N[C@@H](Cc1ccccc1)C(=O)N1CCC[C@@H]1C(N)=O` [N-phenylacetyl-Asp-Leu-Phe-D-Pro-NH2, reference compound] (PhAc-DLF[dP]-NH2)?
A: reduction of inflammation (swelling diameter at challenge site), initial study (BALB/c mice): no reduction of inflammation; PC400, carbachol dosage required to increase SRL 4-fold (asthmatic sheep): about 12 BU; specific lung resistance (SRL) after challenge (asthmatic sheep): had an increase in that pulmonary function; binding inhibition, in words (compared with standard 10-mer of SEQ ID NO:3 or other compounds) (VLA-4 receptor): no inhibition of VLA-4; Relative Potency (VLA-4 receptor): 0
